This is an account of results in patent US5023244A, “Anti-dementia agents” (Hoechst Japan Limited, priority 1986, dated 1991).

Series [1] is described as follows: Passive avoidance task, memory retention test after cycloheximide-induced amnesia (retrieval process). In kind it is in vivo, ICR male mice. Particulars: cycloheximide 120 mg/kg i.p., test 24 h after training. The text has this:
The passive avoidance task and the induction of amnesia by cycloheximide are experimental methods usually employed (Naoki Yamazaki et al.: Jap. J. Psychopharmacol., 3, 127 (1983)). The detailed method is described below. The apparatus used for the experiment was a plastic box 24 cm in height, 20 cm in width and 23 cm in length with a floor of iron grids at the corner of which was placed a platform 8 cm in length, 8 cm in width and 1.5 cm in height. When a mouse placed in the box was subjected to electric stimulus with a current of 0.3 mA for a period of approximately 3 seconds, the mouse escaped onto the platform. After subsequent non-stimulus period of 8 seconds, the mouse was subjected to the electric stimulus for an additional period of approximately 5 seconds. By this method, the mouse acquired memory of aversion that the electric stimulus would be delivered whenever the animal got off the platform, thus the passive avoidance task was established. The learning was judged to be established if the mouse placed on the platform under non-stimulus condition immediately after the training remained on it for 30 seconds or longer.
The test to observe whether or not a mouse retained memory of aversion was performed 24 hours after the training and percent memory retention was calculated according to the following equation: [formula]
In order to induce deficits of memory, the animal was intraperitoneally administered 15 min prior to the training with a physiological saline solution of cycloheximide at a dose of 120 mg/kg., and then subjected to the electric stimulus for training.
A memory retention test was performed 24 hours after training. An intraperitoneal administration was done 75 min. prior to the test respectively for L-N^6 -phenylisopropyladenosine (Compound A) and N^6 -cyclohexyladenosine (Compound C), 60 min. prior to the test respectively for 2-chloroadenosine(Compound B) and adenosine-5'-(N-cyclopropyl)carboxamide (Compound E) and 45 min. prior to the test for adenosine-5'-(N-ethyl)carboxamide (Compound D).

A short description of series [2]: Acute toxicity (LD50) in mice by intraperitoneal administration. Particulars: mouse, in vivo, ip.
[3] abbreviates: 100 μg/kg i.p., 75 min prior to test.

By LD50 is commonly meant the dose at which mortality reaches 50%. For `Nc1nc(Cl)nc2c1ncn2[C@@H]1O[C@H](CO)[C@@H](O)[C@H]1O` [Compound B, 2-chloroadenosine], the Percent memory retention in series [1] (500 μg/kg i.p., 60 min prior to test) is 35.0%; in series [1] (1000 μg/kg i.p., 60 min prior to test), 52.4%. Besides, in series [2], the LD50 stood at 45 mg/kg.

For `Nc1ncnc2c1ncn2[C@@H]1O[C@H](C(=O)NC2CC2)[C@@H](O)[C@H]1O` [Compound E, adenosine-5'-(N-cyclopropyl)carboxamide], the Percent memory retention in series [1] (1 μg/kg i.p., 60 min prior to test) was found to be 25.0%; in series [1] (3 μg/kg i.p., 60 min prior to test) it was 40.0%; in series [1] (10 μg/kg i.p., 60 min prior to test) it was 62.1%; in series [1] (30 μg/kg i.p., 60 min prior to test) it was 66.7%.

Regarding `OC[C@H]1O[C@@H](n2cnc3c(NC4CCCCC4)ncnc32)[C@H](O)[C@@H]1O` [Compound C, N^6 -cyclohexyladenosine], the Percent memory retention in series [1] (10 μg/kg i.p., 75 min prior to test) came to 14.8%; in series [1] (setting [3]), 20.8%; in series [1] (300 μg/kg i.p., 75 min prior to test) it was 66.7%.

Consider `CCNC(=O)[C@H]1O[C@@H](n2cnc3c(N)ncnc32)[C@H](O)[C@@H]1O` [Compound D, adenosine-5'-(N-ethyl)carboxamide], for which the Percent memory retention in series [1] (3 μg/kg i.p., 45 min prior to test) turned out to be 39.3%; in series [1] (7 μg/kg i.p., 45 min prior to test), 42.3%; in series [1] (10 μg/kg i.p., 45 min prior to test), 51.4%.

In the case of `C[C@H](Cc1ccccc1)Nc1ncnc2c1ncn2[C@@H]1O[C@H](CO)[C@@H](O)[C@H]1O` [Compound A, L-N^6 -phenylisopropyladenosine], the Percent memory retention in series [1] (50 μg/kg i.p., 75 min prior to test) is on record as 36.8%; in series [1] (setting [3]), 55.0%. In series [2], the LD50 was determined as 31 mg/kg.
